In PMC7490411 (Signal Transduction and Targeted Therapy, 2020):

How the values were obtained:
EGFR(G719S) = assay: KINOMEscan; type: binding; conditions: 1000 nM
DRAK2 = assay: KINOMEscan; type: binding; conditions: 1000 nM
MYLK2 = assay: KINOMEscan; type: binding; conditions: 1000 nM
PAK4 = assay: KINOMEscan; type: binding; conditions: 1000 nM
YSK1 = assay: KINOMEscan; type: binding; conditions: 1000 nM
PAK3 = assay: KINOMEscan; type: binding; conditions: 1000 nM
AXL = assay: KINOMEscan; type: binding; conditions: 1000 nM
AAK1 = assay: KINOMEscan; type: binding; conditions: 1000 nM
BIKE = assay: KINOMEscan; type: binding; conditions: 1000 nM
IKK-epsilon = assay: KINOMEscan; type: binding; conditions: 1000 nM
ALK = assay: KINOMEscan; type: binding; conditions: 1000 nM
CSNK1A1 = assay: KINOMEscan; type: binding; conditions: 1000 nM
TIE2 = assay: KINOMEscan; type: binding; conditions: 1000 nM
ALK(L1196M) = assay: KINOMEscan; type: binding; conditions: 1000 nM
PKMYT1 = assay: KINOMEscan; type: binding; conditions: 1000 nM
YES = assay: KINOMEscan; type: binding; conditions: 1000 nM
CDKL2 = assay: KINOMEscan; type: binding; conditions: 1000 nM
PIK3C2B = assay: KINOMEscan; type: binding; conditions: 1000 nM
ACVR1 = assay: KINOMEscan; type: binding; conditions: 1000 nM
MAST1 = assay: KINOMEscan; type: binding; conditions: 1000 nM
PCTK1 = assay: KINOMEscan; type: binding; conditions: 1000 nM
FGFR1 = assay: KINOMEscan; type: binding; conditions: 1000 nM
LIMK2 = assay: KINOMEscan; type: binding; conditions: 1000 nM
PRKG1 = assay: KINOMEscan; type: binding; conditions: 1000 nM
MYLK4 = assay: KINOMEscan; type: binding; conditions: 1000 nM
MERTK = assay: KINOMEscan; type: binding; conditions: 1000 nM
CDK11 = assay: KINOMEscan; type: binding; conditions: 1000 nM
SNARK = assay: KINOMEscan; type: binding; conditions: 1000 nM
CLK1 = assay: KINOMEscan; type: binding; conditions: 1000 nM
SRPK3 = assay: KINOMEscan; type: binding; conditions: 1000 nM
PIK3CA(H1047Y) = assay: KINOMEscan; type: binding; conditions: 1000 nM
[1] = system: EGFR(L747-S752del, P753S); assay: KINOMEscan; type: binding; conditions: 1000 nM
PRKD3 = assay: KINOMEscan; type: binding; conditions: 1000 nM
ADCK4 = assay: KINOMEscan; type: binding; conditions: 1000 nM
GAK = assay: KINOMEscan; type: binding; conditions: 1000 nM
[2] = system: ABL1(M351T)-phosphorylated; assay: KINOMEscan; type: binding; conditions: 1000 nM
MAP4K2 = assay: KINOMEscan; type: binding; conditions: 1000 nM
[3] = system: ABL1(T315I)-phosphorylated; assay: KINOMEscan; type: binding; conditions: 1000 nM
PDGFRA = assay: KINOMEscan; type: binding; conditions: 1000 nM
TNK1 = assay: KINOMEscan; type: binding; conditions: 1000 nM
RIPK1 = assay: KINOMEscan; type: binding; conditions: 1000 nM
[4] = system: ABL1(F317L)-phosphorylated; assay: KINOMEscan; type: binding; conditions: 1000 nM
CSNK1G3 = assay: KINOMEscan; type: binding; conditions: 1000 nM
LOK = assay: KINOMEscan; type: binding; conditions: 1000 nM
MST4 = assay: KINOMEscan; type: binding; conditions: 1000 nM
PCTK3 = assay: KINOMEscan; type: binding; conditions: 1000 nM
MST2 = assay: KINOMEscan; type: binding; conditions: 1000 nM
FLT3(R834Q) = assay: KINOMEscan; type: binding; conditions: 1000 nM
INSRR = assay: KINOMEscan; type: binding; conditions: 1000 nM
WNK4 = assay: KINOMEscan; type: binding; conditions: 1000 nM
EGFR(T790M) = assay: KINOMEscan; type: binding; conditions: 1000 nM
EPHB2 = assay: KINOMEscan; type: binding; conditions: 1000 nM
CHEK2 = assay: KINOMEscan; type: binding; conditions: 1000 nM
[5] = system: REC-1 cells bone marrow engraftment; assay: REC-1 cells bone marrow engrafted mouse model; type: in vivo; conditions: REC-1 bone marrow engraftment
Procedure: Five-week old female NOD-SCID mice were purchased from the Beijing Vital River Laboratory Animal Technology Co., Ltd (Beijing, China). All animals were housed in a specific pathogen free facility and used according to the animal care regulations of Hefei Institutes of Physical Science, Chinese Academy of Sciences. NOD-SCID mice were induced by intraperitoneal injection of cyclophosphamide (CTX) 50 mg/kg daily for two days. 8 million REC-1 cells in 0.3 mL RPMI1640 medium were injected by intravenous after 24 h. […] Mice were monitored daily and were euthanized when moribund or at early signs of hind limb paralysis.

## C=CC(=O)Nc1cc(Nc2cc(-c3cccc(NC(=O)c4cc5c(s4)CCCC5)c3C)cn(C)c2=O)ccc1N1CCN(CC)CC1 [CHMFL-BTK-85]
EGFR(G719S)
  Percent Control: 88%
DRAK2
  Percent Control: 100%
MYLK2
  Percent Control: 91%
PAK4
  Percent Control: 100%
YSK1
  Percent Control: 80%
PAK3
  Percent Control: 100%
AXL
  Percent Control: 100%
AAK1
  Percent Control: 82%
BIKE
  Percent Control: 100%
IKK-epsilon
  Percent Control: 53%
ALK
  Percent Control: 86%
CSNK1A1
  Percent Control: 100%
TIE2
  Percent Control: 84%
ALK(L1196M)
  Percent Control: 100%
PKMYT1
  Percent Control: 63%
YES
  Percent Control: 17%
CDKL2
  Percent Control: 98%
PIK3C2B
  Percent Control: 92%
ACVR1
  Percent Control: 99%
MAST1
  Percent Control: 100%
PCTK1
  Percent Control: 100%
FGFR1
  Percent Control: 86%
LIMK2
  Percent Control: 100%
PRKG1
  Percent Control: 93%
MYLK4
  Percent Control: 94%
MERTK
  Percent Control: 84%
CDK11
  Percent Control: 82%
SNARK
  Percent Control: 100%
CLK1
  Percent Control: 88%
SRPK3
  Percent Control: 83%
PIK3CA(H1047Y)
  Percent Control: 83%
[1]
  Percent Control: 100%
PRKD3
  Percent Control: 100%
ADCK4
  Percent Control: 100%
GAK
  Percent Control: 100%
[2]
  Percent Control: 100%
MAP4K2
  Percent Control: 100%
[3]
  Percent Control: 100%
PDGFRA
  Percent Control: 100%
TNK1
  Percent Control: 75%
RIPK1
  Percent Control: 97%
[4]
  Percent Control: 100%
CSNK1G3
  Percent Control: 100%
LOK
  Percent Control: 100%
MST4
  Percent Control: 100%
PCTK3
  Percent Control: 86%
MST2
  Percent Control: 88%
FLT3(R834Q)
  Percent Control: 100%
INSRR
  Percent Control: 90%
WNK4
  Percent Control: 82%
EGFR(T790M)
  Percent Control: 98%
EPHB2
  Percent Control: 84%
CHEK2
  Percent Control: 94%
[5]; 50 mg/kg/day p.o.
  median survival time: 42 days
[5]; 150 mg/kg/day p.o.
  median survival time: 63 days
